{"source": "patent US20020192827A1", "about": "“Novel vector for C. glabrata and the use thereof” (priority 2000, published 2002)", "tested_on": "C. glabrata strain ATCC 200989", "test": "geneticin resistance growth test on -Ura medium, uninduced and copper-induced", "assay_type": "cell-based, Candida glabrata", "experimental": "C. C. glabrata strain with expression plasmid pFPG1 lacking or carrying the wildtype neomycin/kanamycin resistance gene (which confers resistance to the antibiotic geneticin), on -Ura media supplemented with 1 mg/ml geneticin.\nC. C. glabrata strain with expression plasmid pFPG2 lacking or carrying the wildtype neomycin/kanamycin resistance gene (which confers resistance to the antibiotic geneticin), on -Ura media supplemented with 1 mg/ml geneticin.\nThe neomycin/kanamycin resistance gene from Tn903 confers resistance of C. glabrata to the antibiotic G418, geneticin (Cormack and Falkow, 1999). The pFPG1-NEO plasmid and empty pFPG1 as a control were transformed into C. glabrata strain ATCC 200989 and tested for geneticin resistance under uninduced and induced conditions (FIG. 3C). […] In this case, induction of the MT-1 promoter in pFPG1 was not absolutely necessary to obtain adequate expression of the NEO gene.\nThe NEO pFPG2 plasmid and empty pFPG2 as a control were transformed into C. glabrata strain ATCC 200989 and tested for geneticin resistance on -Ura medium under uninduced and induced conditions (FIG. 6)."}
{"smiles": "CN[C@@H]1[C@@H](O)[C@@H](O[C@@H]2[C@@H](O)[C@H](O[C@H]3O[C@H]([C@@H](C)O)[C@@H](O)[C@H](O)[C@H]3N)[C@@H](N)C[C@H]2N)OC[C@]1(C)O", "note": "[geneticin]", "values": [{"measurement": "geneticin concentration required to suppress growth", "setting": "strain ATCC 200989 with empty pFPG1 plasmid", "value": "about 1 mg/ml"}, {"measurement": "geneticin concentration required to suppress growth", "setting": "strain ATCC 200989 with empty pFPG2 plasmid, -Ura medium", "value": "about 1 mg/ml"}]}
